Where “and” joins values, the source holds several entries; their conditions need not be identical. Equal values may be shown once. Read-outs that look alike come from different tables or passages of the source.
Experiments:
[1] = test system: HT-29 colon adenocarcinoma; assay: MTT in vitro cytotoxicity, HT-29; format: cell-based
Experimental: (§1) All were stored in the dark at 4° C. An accurately weighed amount of each compound was dissolved in DMSO and Hank's Balanced Salt Solution (Sigma) according to Table 2 below:
(§2) Further dilutions were made in complete RPMI1640 cell culture medium (RPMI1640 cell culture medium supplemented with 10% foetal bovine serum, 1 mM L-glutamine, and 2 mM sodium pyruvate (all from Sigma)).
(§3) H460 non-small cell lung adenocarcinoma, HT-29 colon adenocarcinoma and MCF-7 breast adenocarcinoma (ECACC, Salisbury, Wiltshire) were used for analysis. Cells were cultured in complete RPMI1640 cell culture medium, and maintained as monolayer cultures at 37° C. in a humidified 5% CO2 environment.
(§4) Tumour cell growth inhibition was assessed using the MTT assay with a standard 96 hour plus an extended 10 day incubation. For the 96 hour assay 1×10^4 cells were inoculated into each well of a 96-well plate and incubated overnight at 37° C. in a humidified atmosphere containing 5% CO2 to give time to adhere to the wells and form a monolayer. For the 10 day incubation, 1×102 (H460 and HT-29) and 1×103 (MCF-7) cells were inoculated. The next day, culture medium was removed from each well and replaced with cell culture media for the untreated control, or media containing compound, and the plates then incubated for a further 96 hours or 10 days. […] After 96 hours or 10 days culture medium was removed and 200 μL of 0.5 mgmL-1 MTT solution (Sigma) in complete medium added to each well. Following a further 4 hours incubation, the solution was removed from each well and 150 μL of DMSO added to solubilise the formazan crystals resulting from MTT conversion. Absorbance values for the resulting solutions were read at 550 nm on a Multiskan Ex microplate reader (Thermo Fisher, Loughborough, UK) and cell survival calculated as the absorbance of treated cells divided by the control. Results are expressed in terms of IC50 values (i.e. concentration of compound required to kill 50% of cells), which were determined manually in Microsoft Excel from plots of concentration versus percentage cell survival, and all experiments were performed in triplicate.

[2] = test system: MCF-7 breast adenocarcinoma; assay: MTT in vitro cytotoxicity, MCF-7; format: cell-based, human
Experimental: as §1, §2, §3, §4

[3] = test system: H460 non-small cell lung adenocarcinoma; assay: MTT in vitro cytotoxicity, H460; format: cell-based
Experimental: as §1, §2, §3, §4

[4] = test system: MCF-7 Human Breastadenocarclnoma Xenograft; assay: MCF-7 xenograft model study; format: in vivo, mice
Excerpt: Evaluation of the Efficacy of the Compounds C & D (Examples 2 & 3 Respectively) in the MCF-7 Human Breastadenocarclnoma Xenograft Model

[5] = Redox potential study, square wave voltammetry; format: physicochemical; conditions: 0.1 mol dm-3 LiNTf2, 20° C., first scan
Experimental: BioAnalytical Systems CV50W potentiostat (from BAS Inc., USA)
Square wave voltammetry (4 mV step, 25 mV pulse, 10 Hz SW frequency)
3 mm diameter glassy carbon working electrode (from BAS)
3 mm diameter glassy carbon counter electrode (from BAS)
Saturated calomel reference electrode (SCE, from Sycopel Scientific Ltd., UK)
0.1 mol dm-3 lithium bis(trifluoromethanesulphonyl)imide ((LiNTf2)CAS 90076-65-6, from 3M)
Voltammograms were recorded from 0.5 V to −1.2 V in deoxygenated solutions of the Compounds.

[6] = test system: human mitochondria isolated from HEK293 cells; assay: ROS production in isolated mitochondria (DCFDA); format: biochemical
Experimental: The ability of test compounds to impact ROS production in isolated mitochondria after 120 mins exposure was assessed.
Mitochondria were isolated from harvested human embryonic kidney (HEK293) cells (20×10^6) using a commercial kit (Thermo Scientific) before re-suspension in PBS to a final volume of 800 μL. […] Independent experiments (each assessing the impact of all four compounds along with a positive [AAPH; 5.0 mM] and vehicle control) were repeated three times.

[7] = test system: A2780 [ovarian]; assay: Combination with cisplatin, A2780; format: cell-based
[8] = test system: MCF7 [Breast]; assay: Combination with cisplatin, MCF-7; format: cell-based, human
[9] = test system: M 14 [melanoma]; assay: Combination with cisplatin, M14; format: cell-based
[10] = test system: A2780/cis [cisplatin ovarian resistant line]; assay: Combination with cisplatin, A2780/cis; format: cell-based
[11] = HT-29, 10 day exposure, highest concentration 30 μM, read-out: IC50 Run 1
[12] = HT-29, 10 day exposure, highest concentration 100 μM, read-out: IC50 Run 2
[13] = HT-29, 10 day exposure, highest concentration 100 μM, read-out: IC50 Run 3
[14] = MCF-7, 10 day exposure, highest concentration 30 μM, read-out: IC50 Run 1
[15] = MCF-7, 10 day exposure, highest concentration 100 μM, read-out: IC50 Run 2
[16] = MCF-7, 10 day exposure, highest concentration 100 μM, read-out: IC50 Run 3
[17] = H460, 10 day exposure, highest concentration 30 μM, read-out: IC50 Run 1
[18] = H460, 10 day exposure, highest concentration 100 μM, read-out: IC50 Run 2
[19] = H460, 10 day exposure, highest concentration 100 μM, read-out: IC50 Run 3
[20] = 200 mg/kg, i.v., d 0, 2, 4, 7, 9 & 11
[21] = cisplatin 1 μM alone (compound 0 μM)
[22] = cisplatin 3 μM alone (compound 0 μM)
[23] = cisplatin 10 μM alone (compound 0 μM)
[24] = compound 1 μM + cisplatin 10 μM
[25] = compound 3 μM + cisplatin 10 μM
[26] = compound 10 μM + cisplatin 1 μM
[27] = compound 10 μM + cisplatin 3 μM
[28] = compound 10 μM + cisplatin 10 μM

3-((2-(2-methoxy-ethoxy)(ethoxy)n)methyl)-6,7-dihydrodipyrido[1,2-a:2′,1′-c]pyrazine-5,8-diium bistrifluoromethanesulfonate [Compound C]
IC50 [1, 11]: > 30 µM | IC50 [1, 12]: 82 µM | IC50 [1, 13]: 78 µM | IC50 [2, 14]: > 30 µM | IC50 [2, 15]: 97 µM | IC50 [2, 16]: > 100 µM | IC50 [3, 17]: > 30 µM | IC50 [3, 18]: > 100 µM | IC50 [3, 19]: > 100 µM | Growth delay [4, 20]: 3.1 days | Maximum % weight loss [4, 20]: 0% | Reduction potential 1 [5]: −0.470 V vs. SCE | Reduction potential 2 [5]: −0.803 V vs. SCE

3-(((2-(2-methoxyethoxy)(ethoxy)n)ethyl) hexane-1,6-diyldicarbamate)methyl)-6,7-dihydrodipyrido[1,2-a:2′,1′-c]pyrazine-5,8-diium bistrifluoromethanesulfonate [Compound D]
IC50 [1, 11]: > 30 µM | IC50 [1, 12]: > 100 µM | IC50 [1, 13]: 81 µM | IC50 [2, 14]: > 30 µM | IC50 [2, 15]: 72 µM | IC50 [2, 16]: > 100 µM | IC50 [3, 17]: > 30 µM | IC50 [3, 18]: > 100 µM | IC50 [3, 19]: > 100 µM | Growth delay [4, 20]: 2.4 days | Maximum % weight loss [4, 20]: 0% | Reduction potential 1 [5]: −0.423 V vs. SCE | Reduction potential 2 [5]: −0.828 V vs. SCE

3-(((2-(2-methoxyethoxy)(ethoxy)n)ethyl) hexane-1,6-diyldicarbamate)methyl)-6,7-dihydrodipyrido[1,2-a:2′,1′-c]pyrazine-5,8-diium bistrifluoromethanesulfonate [G]
rank order of efficacy (ROS production) ([6]; isolated HEK293 mitochondria, 100 μM, 120 mins): F>G>B>A | ROS production relative to vehicle treatment ([6]; isolated HEK293 mitochondria, 100 μM, 120 mins, room temperature): robustly increased ROS production

N.N.[Cl][Pt][Cl] [Cisplatin]
% cell survival [7, 21]: 49.5% and 52.5% | % cell survival [7, 22]: 19.6% and 19.2% | % cell survival [7, 23]: 4.8% and 5.8% | IC50 [1, 11]: 2.4 µM | IC50 [1, 12]: 1.3 µM | IC50 [1, 13]: 0.7 µM | IC50 ([1]; HT-29, 10 day exposure, mean of runs, read-out: IC50 Mean): 1.5 µM | IC50 [2, 14]: 2.3 µM | IC50 [2, 15]: 2.3 µM | IC50 [2, 16]: 2.5 µM | IC50 ([2]; MCF-7, 10 day exposure, mean of runs, read-out: IC50 Mean): 2.4 µM | IC50 [3, 17]: 1.1 µM | IC50 [3, 18]: 1 µM | IC50 [3, 19]: 0.9 µM | IC50 ([3]; H460, 10 day exposure, mean of runs, read-out: IC50 Mean): 1 µM | Growth delay ([4]; 10 mg/kg, i.p., d 0): 5.1 days | Maximum % weight loss ([4]; 10 mg/kg, i.p., d 0): 8.0% | weight loss of tumour bearing mice ([4]; xenograft studies, FIG. 6): significant weight loss | % cell survival ([8]; cisplatin 0.1 μM alone (compound 0 μM)): 107.4% and 110.8% | % cell survival ([8]; cisplatin 0.3 μM alone (compound 0 μM)): 76% and 91.3% | % cell survival [8, 21]: 72.4% and 70.3% | % cell survival [9, 21]: 85.6% and 97.7% | % cell survival [9, 22]: 77.1% and 84.8% | % cell survival [9, 23]: 58.3% and 63.3% | % cell survival [10, 23]: 36.3% and 39.7% | % cell survival ([10]; cisplatin 30 μM alone (compound 0 μM)): 8.7% and 8.6% | % cell survival ([10]; cisplatin 100 μM alone (compound 0 μM)): −0.5% and 1.1%

O=S(=O)([O-])C(F)(F)F.O=S(=O)([O-])C(F)(F)F.c1cc[n+]2c(c1)-c1cccc[n+]1CC2 [Compound A, 6,7-dihydrodipyrido[1,2-a:2′,1′-c]pyrazine-5,8-diium bistrifluoromethanesulfonate]
% cell survival ([7]; compound 1 μM + cisplatin 1 μM): 58% | % cell survival ([7]; compound 1 μM + cisplatin 3 μM): 24.5% | % cell survival [7, 24]: 5.2% | % cell survival ([7]; compound 1 μM, cisplatin 0 μM): 90.5% | % cell survival ([7]; compound 3 μM + cisplatin 1 μM): 54.4% | % cell survival ([7]; compound 3 μM + cisplatin 3 μM): 22.3% | % cell survival [7, 25]: 5.3% | % cell survival ([7]; compound 3 μM, cisplatin 0 μM): 86.3% | % cell survival [7, 26]: 40.6% | % cell survival [7, 27]: 19% | % cell survival [7, 28]: 5.2% | % cell survival ([7]; compound 10 μM, cisplatin 0 μM): 66% | IC50 ([1]; Homo sapiens, HT-29, 240 h, read-out: IC50 Mean): 1.5 µM | IC50 ([1]; Homo sapiens, HT-29, 240 h, read-out: IC50 Run 1): 1.8 µM | IC50 ([1]; Homo sapiens, HT-29, 240 h, read-out: IC50 Run 2): 0.9 µM | IC50 ([1]; Homo sapiens, HT-29, 240 h, read-out: IC50 Run 3): 1.7 µM | IC50 ([2]; Homo sapiens, MCF7, 240 h, read-out: IC50 Mean): 5 µM | IC50 ([2]; Homo sapiens, MCF7, 240 h, read-out: IC50 Run 1): 2.7 µM | IC50 ([2]; Homo sapiens, MCF7, 240 h, read-out: IC50 Run 2): 5.4 µM | IC50 ([2]; Homo sapiens, MCF7, 240 h, read-out: IC50 Run 3): 6.8 µM | IC50 ([3]; Homo sapiens, NCI-H460, 240 h, read-out: IC50 Mean): 5.4 µM | IC50 ([3]; Homo sapiens, NCI-H460, 240 h, read-out: IC50 Run 1): 5.2 µM | IC50 ([3]; Homo sapiens, NCI-H460, 240 h, read-out: IC50 Run 2): 5.5 µM | IC50 ([3]; Homo sapiens, NCI-H460, 240 h, read-out: IC50 Run 3): 5.4 µM | % cell survival ([8]; compound 1 μM + cisplatin 0.1 μM): 96.4% | % cell survival ([8]; compound 1 μM + cisplatin 0.3 μM): 69.4% | % cell survival ([8]; compound 1 μM + cisplatin 1 μM): 62% | % cell survival ([8]; compound 1 μM, cisplatin 0 μM): 109% | % cell survival ([8]; compound 3 μM + cisplatin 0.1 μM): 80.9% | % cell survival ([8]; compound 3 μM + cisplatin 0.3 μM): 64.8% | % cell survival ([8]; compound 3 μM + cisplatin 1 μM): 66.2% | % cell survival ([8]; compound 3 μM, cisplatin 0 μM): 95.1% | % cell survival ([8]; compound 10 μM + cisplatin 0.1 μM): 52.8% | % cell survival ([8]; compound 10 μM + cisplatin 0.3 μM): 39.6% | % cell survival [8, 26]: 32.6% | % cell survival ([8]; compound 10 μM, cisplatin 0 μM): 52.6% | % cell survival ([9]; compound 1 μM + cisplatin 1 μM): 83.1% | % cell survival ([9]; compound 1 μM + cisplatin 3 μM): 71.3% | % cell survival [9, 24]: 57.9% | % cell survival ([9]; compound 1 μM, cisplatin 0 μM): 87% | % cell survival ([9]; compound 3 μM + cisplatin 1 μM): 75.8% | % cell survival ([9]; compound 3 μM + cisplatin 3 μM): 68% | % cell survival [9, 25]: 55.4% | % cell survival ([9]; compound 3 μM, cisplatin 0 μM): 80% | % cell survival [9, 26]: 49% | % cell survival [9, 27]: 44.4% | % cell survival [9, 28]: 36.4% | % cell survival ([9]; compound 10 μM, cisplatin 0 μM): 56.5% | % cell survival [10, 24]: 51.4% | % cell survival ([10]; compound 1 μM + cisplatin 30 μM): 10% | % cell survival ([10]; compound 1 μM + cisplatin 100 μM): −1.6% | % cell survival ([10]; compound 1 μM, cisplatin 0 μM): 77.8% | % cell survival [10, 25]: 31.9% | % cell survival ([10]; compound 3 μM + cisplatin 30 μM): 10.2% | % cell survival ([10]; compound 3 μM + cisplatin 100 μM): 1.9% | % cell survival ([10]; compound 3 μM, cisplatin 0 μM): 48.7% | % cell survival [10, 28]: 16.6% | % cell survival ([10]; compound 10 μM + cisplatin 30 μM): 6% | % cell survival ([10]; compound 10 μM + cisplatin 100 μM): 1.8% | % cell survival ([10]; compound 10 μM, cisplatin 0 μM): 29.4% | ROS production relative to vehicle treatment [6]: barely above vehicle levels | rank order of efficacy (ROS production) [6]: F>G>B>A | Reduction potential 1 [5]: −0.444 V vs. SCE | Reduction potential 2 [5]: −0.944 V vs. SCE
